# Where two headings read alike, the source gives them in different places.
# Columns and labels:
# [1] = tested on: T. cruzi trypomastigotes Dm28c-Luc; assay: Trypanocidal activity against trypomastigotes, Dm28c-Luc clone (luciferase); format: cell-based, Trypanosoma cruzi; settings: Trypanosoma cruzi, 24 h, mean ± SD of three experiments; for IC50: read-out: Trypanocidal Effect Trypomastigotes Dm28c-Luc IC50; for IC90: read-out: Trypanocidal Effect Trypomastigotes Dm28c-Luc IC90
# Method: (§1) T. cruzi Dm28c-Luc clone, genetically modified to express firefly luciferase, and Y strain were used in the drug screening assay. Vero cells were infected with T. cruzi, Dm28c-Luc or Y strain, in a 10:1 parasites/host cell ratio and maintained at 37 °C in humidified atmosphere of 5% CO2. Trypomastigotes were harvested from the infected culture supernatant on the 4th day post-infection (dpi) followed by quantification of the number of parasites/mL in Neubauer chamber.
# (§2) Screening of the compounds was performed against trypomastigotes and intracellular amastigote forms. Trypomastigotes (1 × 10^6 parasites/well), Dm28c-Luc clone and Y strain, were incubated for 24 h at 37 °C with the 1,4 naphthoquinone derivatives and Bz (0.41–100 μM) and their viability determined by the activity of the luciferase enzyme, after addition of luciferin substrate (300 μg/mL), or CellTiter Glo. The luminescent signal was detected on the FlexStation 3 reader.
# [2] = tested on: T. cruzi trypomastigotes Y strain; assay: Trypanocidal activity against trypomastigotes, Y strain (CellTiter Glo); format: cell-based; settings: Trypanosoma cruzi, 24 h
# Method: as §1, §2
# [3] = tested on: intracellular amastigotes of T. cruzi (Dm28c-Luc clone); assay: Luminescent screening against intracellular amastigotes in infected Vero cells; format: cell-based, Trypanosoma cruzi; settings: infected Vero cells treated for 72 h, mean ± SD of three experiments
# Method: as §1
# The effect of the compounds against intracellular amastigotes was screened in 72 h T. cruzi-infected Vero cells. Briefly, Vero cells seeded (1.5 × 10^4 cells/well) on 96-well white plate infected with trypomastigotes (Dm28c-Luc) at a 10:1 multiplicity of parasites/cell. After 24 h of infection, the cultures were washed with PBS and then, treated for 72 h at 37 °C with naphthoquinone derivatives and Bz (0.41–100 µM). After treatment, luciferin (300 µg/mL) was added to the culture and the viability of the parasites was assessed by reading the luminescent signal using the FlexStation 3 reader. Controls were also performed in no-toxic concentrations of DMSO (≤1%).
# [4] = Cytotoxicity in vitro assay (CellTiter Glo, ATP level); format: cell-based; settings: African green monkey, Vero cells
# Method: The cultures were maintained at 37 °C in humidified atmosphere of 5% CO2.
# To evaluate the toxic effects of the 1,4-naphthoquinone derivatives on mammalian cells, Vero cells were seeded at a density of 1.5 × 10^4 cells/well in 96-well white culture plates. Twenty-four hours later, the cell cultures were incubated for 72 h at 37 °C with 1,4-naphthoquinone derivatives (series 1(a–i) and 2(a–j)) and Bz (500–1.9 µM) diluted in RPMI medium supplemented with 10% FBS. After incubation, the cell viability, measured by ATP level, was assessed by adding 20 µL/well of the CellTiter Glo (Promega Corporation, Madison, WI, EUA) solution. The luminescent signal was read on the FlexStation 3 reader (Molecular Devices, Sunnyvale, CA, USA). […] All treatments and controls were performed at low concentration (≤1%) of dimethyl sulfoxide (DMSO). At least three independent assays were performed in duplicate.
# [5] = trypomastigotes, mean ± SD of three experiments, read-out: Trypanocidal Effect Trypomastigotes Y Strain IC50
# [6] = trypomastigotes, mean ± SD of three experiments, read-out: Trypanocidal Effect Trypomastigotes Y Strain IC90
# [7] = Table 1, mean ± SD, read-out: Vero Cells Toxicity CC50
# [8] = read-out: Trypanocidal Effect Trypomastigotes Y Strain IC50, trypomastigotes, 24 h, mean ± SD of three experiments
# [9] = read-out: Trypanocidal Effect Trypomastigotes Y Strain IC90, trypomastigotes, 24 h, mean ± SD of three experiments
Compound,IC50 [1],IC90 [1],"IC50 [2, 5]","IC90 [2, 6]","IC50 ([3]; Trypanosoma cruzi, Vero, 72 h)",IC90 ([3]; Trypanosoma cruzi),IC50 [3],melting point,"CC50 at 72 h [4, 7]","CC50 at 72 h ([4]; Table 2, read-out: CC50 Vero)","IC50 [2, 8]","IC90 [2, 9]"
"O=C1C(O)=C(C(Sc2ccc(Cl)cc2)c2ccc(Cl)cc2)C(=O)c2ccccc21 (centres unmarked) [Compound 1a, 2-((4-chlorophenyl)((4-chlorophenyl)thio)methyl)-3-hydroxynaphthalene-1,4-dione]",8.9 ± 0.6 µM,25.1 ± 1.6 µM,3.1 ± 0.6 µM,5.8 ± 0.9 µM,≤ 6.9 µM,12.1 ± 1.3 µM,6.2 ± 0.9 µM,135 to 136 °C,43.6 ± 2.3 µM,43.6 ± 2.3 µM,–,–
"O=C1C(O)=C(C(Sc2ccc(Cl)cc2)c2cccc(Cl)c2)C(=O)c2ccccc21 (centres unmarked) [Compound 1b, 2-((3-chlorophenyl)((4-chlorophenyl)thio)methyl)-3-hydroxynaphthalene-1,4-dione]",9.8 ± 0.5 µM,30.8 ± 2.9 µM,3.6 ± 1.6 µM,8.1 ± 1.3 µM,≤ 6.9 µM,12.7 ± 1.8 µM,6.9 ± 1.5 µM,–,42.1 ± 1.9 µM,42.1 ± 1.9 µM,–,–
"O=C1C(O)=C(C(Sc2ccc(Cl)cc2)c2ccccc2Cl)C(=O)c2ccccc21 (centres unmarked) [Compound 1c, 2-((2-chlorophenyl)((4-chlorophenyl)thio)methyl)-3-hydroxynaphthalene-1,4-dione]",8.6 ± 1.4 µM,29.6 ± 5.4 µM,4.3 ± 3.2 µM,7.3 ± 2.2 µM,9.3 ± 0.8 µM,23.1 ± 3.3 µM,–,183 to 184 °C,44.1 ± 2.3 µM,44.1 ± 2.3 µM,–,–
"O=C1C(O)=C(C(Sc2ccc(Cl)cc2Cl)c2ccccc2)C(=O)c2ccccc21 (centres unmarked) [Compound 1d, 2-(((2,4-dichlorophenyl)thio)(phenyl)methyl)-3-hydroxynaphthalene-1,4-dione]",9.3 ± 1.1 µM,23.3 ± 2.1 µM,2.8 ± 0.6 µM,5.8 ± 1.1 µM,13.5 ± 2.1 µM,31.1 ± 3.1 µM,–,144 to 145 °C,82.1 ± 5.1 µM,82.1 ± 5.1 µM,–,–
"O=C1C(O)=C(C(Sc2ccc(Cl)cc2)c2ccccc2)C(=O)c2c(O)cccc21 (centres unmarked) [Compound 1f, 3-(((4-chlorophenyl)thio)(phenyl)methyl)-2,5-dihydroxynaphthalene-1,4-dione]",9.8 ± 0.7 µM,28.1 ± 1.7 µM,–,–,10.1 ± 1.4 µM,29.1 ± 2.1 µM,–,–,41.1 ± 2.1 µM,41.1 ± 2.1 µM,–,–
"COc1ccc(C(Sc2ccc(Cl)cc2)C2=C(O)C(=O)c3ccccc3C2=O)c(OC)c1 (centres unmarked) [Compound 1h, 2-(((4-chlorophenyl)thio)(2,4-dimethoxyphenyl)methyl)-3-hydroxynaphthalene-1,4-dione]",15.4 ± 4.6 µM,–,–,–,12.1 ± 3.9 µM,19.4 ± 3.6 µM,–,–,24.4 ± 2.6 µM,24 to 34 µM,22.9 ± 7.1 µM,31.9 ± 6.1 µM
"COc1ccc(C(Sc2ccc(Cl)cc2)C2=C(O)C(=O)c3ccccc3C2=O)c(OC)c1OC (centres unmarked) [Compound 1i, 2-(((4-chlorophenyl)thio)(2,3,4-trimethoxyphenyl)methyl)-3-hydroxynaphthalene-1,4-dione]",21.5 ± 2.9 µM,–,–,–,15.9 ± 3.1 µM,27.2 ± 3.4 µM,–,–,34.2 ± 3.4 µM,24 to 34 µM,30.1 ± 2.3 µM,38.9 ± 4.3 µM
"COc1ccc(C(Sc2ccccc2)C2=C(O)C(=O)c3ccccc3C2=O)cc1 (centres unmarked) [Compound 2a, 2-Hydroxy-3-((4-methoxyphenyl)(phenylthio)methyl)naphthalene-1,4-dione]",27.4 ± 2.9 µM,32.1 ± 1.6 µM,31.2 ± 4.3 µM,38.9 ± 5.3 µM,≤ 6.9 µM,25.3 ± 1.9 µM,6.7 ± 1.6 µM,–,45.1 ± 1.9 µM,45.1 ± 1.9 µM,–,–
"COc1ccc(C(Sc2cccc(C)c2)C2=C(O)C(=O)c3ccccc3C2=O)cc1 (centres unmarked) [Compound 2c, 2-Hydroxy-3-((4-methoxyphenyl)(m-tolylthio)methyl)naphthalene-1,4-dione]",52.3 ± 6.4 µM,84.6 ± 11.4 µM,26.2 ± 4.8 µM,32.8 ± 5.1 µM,~12 µM,30.9 ± 4.7 µM,12.6 ± 2.4 µM,–,48.9 ± 4.7 µM,48.9 ± 4.7 µM,–,–
"COc1ccc(C(Sc2ccc(C)cc2)C2=C(O)C(=O)c3ccccc3C2=O)cc1 (centres unmarked) [Compound 2d, 2-Hydroxy-3-((4-methoxyphenyl)(p-tolylthio)methyl) naphthalene-1,4-dione]",24.3 ± 3.4 µM,82.2 ± 7.7 µM,31.1 ± 1.8 µM,49.7 ± 7.1 µM,11.9 ± 1.7 µM,28.8 ± 4.6 µM,–,–,142 ± 17.6 µM,142 ± 17.6 µM,–,–
"COc1ccc(C(Sc2ccc([N+](=O)[O-])cc2)C2=C(O)C(=O)c3ccccc3C2=O)cc1 (centres unmarked) [Compound 2f, 2-Hydroxy-3-((4-methoxyphenyl)((4-nitrophenyl)thio)methyl)naphthalene-1,4-dione]",6.5 ± 3.1 µM,11.5 ± 3.1 µM,12.5 ± 1.6 µM,19.9 ± 3.6 µM,≤ 6.9 µM,76.6 ± 4.9 µM,5.7 ± 1.4 µM,–,40.6 ± 2.9 µM,40.6 ± 2.9 µM,–,–
"CCCSC(C1=C(O)C(=O)c2ccccc2C1=O)c1ccc(OC)cc1 (centres unmarked) [Compound 2g, 2-Hydroxy-3-((4-methoxyphenyl)(propylthio)methyl)naphthalene-1,4-dione]",13.7 ± 4.1 µM,28.7 ± 5.1 µM,12.7 ± 3.9 µM,23.7 ± 4.1 µM,10.3 ± 2.4 µM,37.7 ± 4.1 µM,–,–,47.7 ± 5.2 µM,47.7 ± 5.2 µM,–,–
"COc1ccc(SC(C2=C(O)C(=O)c3ccccc3C2=O)c2ccc(OC)cc2)cc1 (centres unmarked) [Compound 2i, 2-Hydroxy-3-((4-methoxyphenyl)((4-methoxyphenyl)thio)methyl)naphthalene-1,4-dione]",24.1 ± 2.7 µM,44.9 ± 6.7 µM,10.6 ± 0.4 µM,31.6 ± 5.4 µM,15.8 ± 3.2 µM,34.8 ± 5.3 µM,–,–,44.8 ± 3.3 µM,44.8 ± 3.3 µM,–,–
"COc1ccc(C(Sc2ccc(SC)cc2)C2=C(O)C(=O)c3ccccc3C2=O)cc1 (centres unmarked) [Compound 2j, 2-hydroxy-3-((4-methoxyphenyl)((4-(methylthio)phenyl)thio)methyl)naphthalene-1,4-dione]",52.7 ± 12.6 µM,> 100 µM,89.6 ± 5.4 µM,> 100 µM,60.2 ± 9.8 µM,> 100 µM,–,–,93.5 ± 6.6 µM,93.5 ± 6.6 µM,–,–

# Reference: publication PMC7829778, “Optimization of 1,4-Naphthoquinone Hit Compound: A Computational, Phenotypic, and In Vivo Screening against Trypanosoma cruzi” (Molecules, 2021)
